From patent US12604891B2, “Antifoulant marine structures compositions and methods thereof” (THE TEXAS A&M UNIVERSITY SYSTEM, priority 2020, dated 2026)

What was measured:
Type in all cases: cell-based
Escherichia coli = assay: Agar diffusion test, cytotoxic potential (ASTM F895); conditions: antimicrobial composition in wells punched into inoculated agar, 78° F., 24 hours; FIG. 1
Method: The instant example evaluated various antimicrobial compositions for cytotoxic potential. Briefly, ASTM […] is a test method useful for assessing the cytotoxic potential of new materials and formulations and as part of a quality control program for established medical devices and components. Qualitative results of the potency of various antimicrobial compositions were evaluated using this test method. […] The testing wells were then compared to one another based on the zone of inhibition of cell or spore growth created for each well. Petri dishes were place in an incubator at 78° F. for 24 hours. The zones of inhibition around each well were then compared and the best two antimicrobial compositions from this example were utilized in subsequent testing.

Staphylococcus aureus = assay: Antimicrobial activity under dynamic contact conditions (ASTM E2149-13a), dynamic shaker test, compositions comprising a polymer; conditions: FIG. 3
Method: The instant example evaluated various antifoulant compositions for antimicrobial activity under dynamic contact conditions. Briefly, ASTM E2149-13a is a test standard for determining antimicrobial activity of antimicrobial compositions under dynamic contact conditions. The 2×2 inch antifoulant composition samples from Example 1 and Example 2 were placed in sterilized 500 mL flasks with 100 mL of distilled water.
For antifoulant compositions comprising a polymer, Staphylococcus aureus (gram-positive bacteria) were added to each flask at 3×10^6 VC/mL. For antifoulant compositions comprising a composite material, Escherichia coli (gram-negative bacteria) were added to each flask at approximately 1×10^6 cells/mL. Three samples (0.1 mL each) were taken immediately from each flask and spread on TSA plates. The flasks were incubated in a 37° C. shaking incubator at 200 rpm. Three samples (0.1 mL each) were removed and plated at 1 hour intervals for three hours. Plates were left for growth at 25° C. for 60 hours. Colonies were counted using Sphere Flash and the average VC/mL or colony forming units (CFU) were documented.

[1] = system: gram-positive and gram-negative bacteria; assay: Laboratory testing, overall comparison of antimicrobials; conditions: summary
Description: E. coli is a gram-negative bacteria that has a more complicated cell wall structure which makes this bacteria more difficult to penetrate and mitigate. In contrast, S. aureus is a gram positive bacteria and is naturally more susceptible to antimicrobials and, thus, may be easier to control.

Compound | inhibition of bacterial growth per visible zone of inhibition around the sample (Escherichia coli) | antibacterial efficacy (Staphylococcus aureus; S. aureus, dynamic fluid conditions, antifoulant composition comprising a polymer (HDPE)) | relative antimicrobial efficacy among tested antimicrobials (Staphylococcus aureus; antimicrobials in antifoulant compositions comprising a polymer (HDPE), dynamic flow conditions) | efficacies and performance with both gram-positive and gram-negative bacteria [1]
[O]=[Zn] [zinc oxide] | demonstrated efficacy in inhibiting bacterial growth | – | – | –
zinc pyrithione | demonstrated efficacy in inhibiting bacterial growth | 99.9% | most efficacious | highest efficacies and performance
